Data as given in ChEMBL document CHEMBL1201862, “PubChem BioAssay data set” (2004).
Activity calls are given as the source filed them.

Key:
[1] = Luminescence Cell-Based Dose Response HTS to Identify Activators of Luciferase Translation or Activity in H4 […] Cells. [Related pubchem assays: 1829 (Project Summary), 1814 (Primary HTS)]; assay type: functional
H4 = experiment: Luminescence Cell-Based Dose Response HTS to Identify Activators of 5'UTR Stem-Loop Driven Prion Protein mRNA Translation in H4 Neuroglioblastoma Cells. [Related pubchem assays: 1829 (Project Summary), 1814 (Primary HTS)]; assay type: functional; conditions: Homo sapiens
[2] = target: E3 ubiquitin-protein ligase Mdm2 (Homo sapiens, UniProt Q00987); experiment: MDM2-luc reporter signal enhancers, multi-concentration potency testing, MDM2 ubiquitin-protein ligase inhibitor program, whole-cell format, luminescence detection, 384-well microplate (AID 1394); assay type: functional;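 further: MDM2 E3 inhibitors raise luminescence so EC50 is for signal enhancement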
[3] = toxicity to human hepatoma HepG2 cells – cell-based, cherry-picked samples, cytotoxicity control, dose response (AID 1159577); assay type: functional
[4] = P. falciparum Dd2 growth inhibitors, dose response, SYBR Green, cherry-picked samples (AID 1159567); assay type: functional, cell-based
[5] = toxicity to human HepG2 hepatoma cells – cell-based, plate reader, dry powder samples, cytotoxicity control, dose response (AID 1159569); assay type: functional;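 further: inhibitor potency with signal falling toward the positive control level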
[6] = Dd2 malaria parasite growth inhibition potency – SYBR Green, dry powder samples, dose response (AID 1159566); assay type: functional, cell-based;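 further: potency for growth inhibition with lower SYBR green DNA signal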
[7] = growth inhibition of PfATP4-mutant resistant parasites – NITD609-resistant line, SYBR Green, dry powder, dose response (AID 1159571); assay type: functional, cell-based;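 further: parasites synchronized at ring stage by sorbitol before testing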
[8] = growth inhibition of yeast DHODH-expressing 3D7 parasites – SYBR Green, dry powder samples, dose response (AID 1159570); assay type: functional, cell-based;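 further: parasite growth measured after 72 hours of compound exposure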
cells [9] = assay type: functional, cell-based
[10] = target: T1, Trace amine-associated receptor 1 (Homo sapiens, UniProt Q96RJ0); experiment: Counterscreen for agonists of the human trace amine associated receptor 1 (hTAAR1): Fluorescence-based cell-based high throughput dose response assay to identify hTAAR1 agonist that also desensitize TAAR1 receptor response.; assay type: functional
T1 sequence (Q96RJ0 whole entry): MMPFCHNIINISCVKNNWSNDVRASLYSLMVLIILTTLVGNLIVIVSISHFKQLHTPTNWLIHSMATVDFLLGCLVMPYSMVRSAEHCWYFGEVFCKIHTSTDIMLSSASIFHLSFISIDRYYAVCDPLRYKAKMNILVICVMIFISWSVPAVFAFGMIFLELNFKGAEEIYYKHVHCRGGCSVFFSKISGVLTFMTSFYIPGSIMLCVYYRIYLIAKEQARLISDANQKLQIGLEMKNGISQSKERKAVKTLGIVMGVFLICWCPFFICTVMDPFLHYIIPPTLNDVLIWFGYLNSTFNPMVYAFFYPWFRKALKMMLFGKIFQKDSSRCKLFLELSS

[11] = target: T1, Trace amine-associated receptor 1; experiment: Fluorescence-based cell-based high throughput dose response assay to identify agonists of the human trace amine associated receptor 1 (TAAR1).; assay type: functional
cells [12] = assay type: functional, cell-based; remark: listed apart in the source
[13] = Trypanosoma cruzi growth suppression in host cells – NIH3T3 host cells, beta-gal luminescence, confirmation (AID 2044); assay type: functional, cell-based;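 further: intracellular parasites grown in NIH/3T3 mouse fibroblasts as host cells; luminescent beta-galactosidase reporter signal from transgenic T. cruzi replicating inside host cells; inhibitors lower the luminescence signal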
[14] = test system: Streptococcus sp. 'group A'; experiment: Streptococcus pyogenes SK(-)GAS viability under kanamycin – luminescence, BacTiterGlo, confirmation, counter-screen for streptokinase expression inhibitor project, dose response (AID 1900); assay type: functional, organism-based
[15] = target: Disintegrin and metalloproteinase domain-containing protein 17 (Homo sapiens, UniProt P78536); experiment: inhibition of ADAM17 substrate cleavage – biochemical, quenched FRET substrate, counter-screen for ADAM10 exosite inhibitor project, dose response (AID 743253)
[16] = microbe, parasite or virus in culture; assay type: functional; conditions: Mycobacterium tuberculosis
Streptococcus = experiment: GAS UMAA2166 growth inhibition – luminescence, BacTiterGlo, counter-screen for streptokinase expression inhibitor project, dose response (AID 1915); assay type: functional, organism-based;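 further: potency for reduction of bacterial viability or growth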
Streptokinase A = target: T2, Streptokinase A (Streptococcus pyogenes serotype M1, UniProt P10520); experiment: viability-normalized secreted streptokinase activity reduction – plasminogen activation absorbance, OD405, dose response (AID 1914); assay type: functional, Streptococcus pyogenes M1 GAS;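 further: secreted streptokinase activity via plasminogen activation per viability signal from cell pellet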
T2 sequence (P10520 whole entry): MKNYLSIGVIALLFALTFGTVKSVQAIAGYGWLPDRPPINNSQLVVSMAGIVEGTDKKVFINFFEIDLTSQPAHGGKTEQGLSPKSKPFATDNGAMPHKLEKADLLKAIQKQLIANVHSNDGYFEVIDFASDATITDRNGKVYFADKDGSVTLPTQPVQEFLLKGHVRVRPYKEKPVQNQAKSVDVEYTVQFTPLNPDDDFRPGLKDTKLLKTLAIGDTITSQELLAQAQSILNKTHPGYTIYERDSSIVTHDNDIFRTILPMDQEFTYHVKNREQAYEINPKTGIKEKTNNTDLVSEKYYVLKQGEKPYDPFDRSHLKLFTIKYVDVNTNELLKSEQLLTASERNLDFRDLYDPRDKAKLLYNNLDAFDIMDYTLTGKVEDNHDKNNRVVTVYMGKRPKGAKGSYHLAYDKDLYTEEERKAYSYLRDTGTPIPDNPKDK

[17] = NIH3T3 cell viability loss – ATP luminescence, mouse fibroblasts, counter-screen, dose response (AID 2010); assay type: functional, cell-based;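 further: cells exposed to compound for about 90 hours before reading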
[18] = blockers of bursicon-stimulated LGR2 cAMP reporter – cell-based, HEK293, CRE-luciferase reporter, cherry pick, set 2, dose response (AID 743343); assay type: functional;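 further: transfected cells were stimulated with diluted bursicon conditioned medium after compound addition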
[19] = viability loss in HEK293 cells – cell-based, plate reader, cherry-picked samples, cytotoxicity control, dose response (AID 743446); assay type: functional
[20] = A549 cell cytotoxicity, dose response, cytotoxicity control, plate reader, cherry-pick, antagonist series (AID 743412); assay type: functional, cell-based
[21] = blockade of melanocortin 4 receptor signaling – cell-based, plate reader, cherry pick, counter-screen for LGR2 antagonist project, dose response (AID 743444); assay type: functional;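 further: transfected HEK 293 cells stimulated with alpha-MSH peptide; potency of inhibitors of the alpha-MSH evoked signal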

E3 ubiquitin-protein ligase Mdm2, sequence (Q00987 whole entry): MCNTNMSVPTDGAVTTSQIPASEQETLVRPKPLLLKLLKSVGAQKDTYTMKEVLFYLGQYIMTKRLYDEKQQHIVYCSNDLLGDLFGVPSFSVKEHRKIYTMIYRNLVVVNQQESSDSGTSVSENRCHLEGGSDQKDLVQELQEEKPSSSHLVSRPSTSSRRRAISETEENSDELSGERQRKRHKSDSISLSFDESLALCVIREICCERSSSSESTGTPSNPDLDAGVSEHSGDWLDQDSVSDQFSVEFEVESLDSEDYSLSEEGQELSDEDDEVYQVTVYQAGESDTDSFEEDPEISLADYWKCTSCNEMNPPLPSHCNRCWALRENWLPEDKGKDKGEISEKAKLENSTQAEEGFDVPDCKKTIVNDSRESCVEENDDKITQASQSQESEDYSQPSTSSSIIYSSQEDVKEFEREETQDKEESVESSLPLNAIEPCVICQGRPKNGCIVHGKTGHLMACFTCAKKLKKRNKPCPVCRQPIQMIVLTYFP
Disintegrin and metalloproteinase domain-containing protein 17, sequence (P78536 whole entry, the tested form may be a part): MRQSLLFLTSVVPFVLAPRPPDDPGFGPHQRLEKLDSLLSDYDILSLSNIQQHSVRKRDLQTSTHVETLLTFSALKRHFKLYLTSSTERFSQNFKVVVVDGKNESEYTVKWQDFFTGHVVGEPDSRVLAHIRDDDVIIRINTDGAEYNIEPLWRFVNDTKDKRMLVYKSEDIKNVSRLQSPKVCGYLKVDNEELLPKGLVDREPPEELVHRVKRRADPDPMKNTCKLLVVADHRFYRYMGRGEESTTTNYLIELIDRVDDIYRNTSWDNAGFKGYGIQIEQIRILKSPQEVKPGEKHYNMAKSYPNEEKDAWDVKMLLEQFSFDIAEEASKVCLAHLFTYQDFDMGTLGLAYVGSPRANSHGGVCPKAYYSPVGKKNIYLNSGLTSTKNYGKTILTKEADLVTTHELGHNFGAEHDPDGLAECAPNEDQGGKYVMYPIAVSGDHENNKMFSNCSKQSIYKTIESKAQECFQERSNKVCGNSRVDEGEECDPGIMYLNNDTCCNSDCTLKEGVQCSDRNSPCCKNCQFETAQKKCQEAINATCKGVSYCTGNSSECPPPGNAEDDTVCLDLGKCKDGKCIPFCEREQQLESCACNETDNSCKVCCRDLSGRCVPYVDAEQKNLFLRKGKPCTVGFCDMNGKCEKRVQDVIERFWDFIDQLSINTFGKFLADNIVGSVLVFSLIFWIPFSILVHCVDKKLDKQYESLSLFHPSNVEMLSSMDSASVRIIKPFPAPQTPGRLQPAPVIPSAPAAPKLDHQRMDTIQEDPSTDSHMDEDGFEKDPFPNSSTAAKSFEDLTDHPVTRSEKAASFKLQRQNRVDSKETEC

SMILES: Cc1cccc(Nc2nnc(SCC3CCCCO3)s2)c1 (stereo not given)
- EC50 [1]: 27.2 µM (active)
- EC50 (H4): 21.8 µM (active)
- EC50 [2]: 11.2 µM (not active)

SMILES: CO[C@@H]1CN(C)C(=O)c2cc(NC(=O)c3nc4ccccc4s3)ccc2OC[C@H](C)N(Cc2cccnc2)C[C@@H]1C
- AC50 [3]: 33.4 µM (active)
- AC50 [4]: 5.35 µM (active)

SMILES: O=C(C1CCCC1)N1CC[C@@H]2[C@H]1c1cc(-c3cccc(F)c3)ccc1N[C@@H]2CO
- AC50 [5]: 19.9 µM (active)
- AC50 [6]: 0.641 µM (active)
- AC50 [4]: 0.996 µM (active)
- AC50 [7]: 0.577 µM (active)
- AC50 [8]: 1.03 µM (active)

SMILES: COc1ccccc1C#Cc1ccc2c(c1)[C@H]1NCC[C@H]1[C@@H](CO)N2
- AC50 [5]: 38.1 µM (active)
- AC50 [6]: 2.02 µM (active)
- AC50 [4]: 2.45 µM (active)
- AC50 [7]: 3.13 µM (active)
- AC50 [8]: 3.54 µM (active)

SMILES: Cc1cc(S(=O)(=O)Nc2cccc(Cl)c2)c(C)s1
- EC50 (cells [9]): > 29.9 µM (inactive)
- IC50 [10]: 8.66 µM (active)
- EC50 [11]: 4.88 µM (active)
- IC50 (cells [12]): > 29.9 µM (inactive)

SMILES: Cc1cc(C)c(CSc2nc(-c3ccc([N+](=O)[O-])cc3)c[nH]2)c(C)c1
- EC50 [13]: 3.48 µM (active)
- EC50 [14]: 3.92 µM (active)
- IC50 [15]: > 69.5 µM (inactive)
- CC50 [16]: 22.3 µM (active)
- EC50 (Streptococcus): 39.4 µM (active)
- EC50 (Streptokinase A): 10.3 µM (active)
- EC50 [17]: > 60 µM (inconclusive)

SMILES: O=C(Nc1ccc(Cl)cc1Cl)c1ccc2c(c1)OCCO2
- AC50 [18]: 6.49 µM (active)
- AC50 [19]: > 52 µM (inactive)
- AC50 [20]: 42.4 µM (active)
- AC50 [21]: 12.9 µM (active)
